Experiment [1] has as its target T1, human OX1R (Homo sapiens, UniProt O43613).
T1 construct: expressed in transfected cells; host or cells: CHO; cells from GNF, San Diego
T1 sequence (O43613 1-425): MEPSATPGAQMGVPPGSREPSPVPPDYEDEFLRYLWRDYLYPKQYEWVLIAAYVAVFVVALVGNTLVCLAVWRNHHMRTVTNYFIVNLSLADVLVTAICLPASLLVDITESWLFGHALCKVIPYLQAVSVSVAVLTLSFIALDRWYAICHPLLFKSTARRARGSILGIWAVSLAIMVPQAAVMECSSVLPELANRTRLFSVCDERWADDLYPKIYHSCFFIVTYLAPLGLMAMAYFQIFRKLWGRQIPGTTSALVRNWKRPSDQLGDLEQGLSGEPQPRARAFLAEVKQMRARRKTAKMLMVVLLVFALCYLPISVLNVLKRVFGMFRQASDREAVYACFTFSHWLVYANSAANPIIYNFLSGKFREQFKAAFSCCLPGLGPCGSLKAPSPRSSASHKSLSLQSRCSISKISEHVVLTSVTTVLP
The experiment can be described thus: FLIPR orexin A-stimulated calcium accumulation, human OX1R. In kind it is cell-based. The following applies: CHO cells. The text has this:
(§1) Chinese Hamster Ovary (CHO) cells stably transfected with the cDNA encoding the human OX1R (CHO-hOX1) or OX2R (CHO-hOX2) were used (kindly provided by T. Cremer and Dr. S. Geisse, NIBR Basel, Switzerland). For measurements of calcium accumulation using FLIPR® (Fluorescent Imaging Plate Reader) assay, CHO or Human Embryonic Kidney (HEK) cells stably expressing mouse, rat or human OX1R or OX2R (kindly provided by Dr. A. Chen, GNF, San Diego, CA, USA) were used. […] Cells were maintained in a humidified incubator at 37°C in 5% CO2. For crude cell membrane preparations, cells were washed and harvested in 10 mM HEPES (pH 7.5), and centrifuged at 4°C for 5 min at 2500 g. The cell pellet was either stored at −80°C or used directly.
(§2) Cells expressing either human, rat or mouse OX1R or OX2R were seeded at 8,000 cells/well in black 384 well clear bottom plates and incubated overnight at 37°C. The following day, medium was discarded and cells loaded with 50 μ l of 1 mM Fluo-4 AM (Invitrogen F14202) in dimethyl sulfoxide in working buffer (Hanks' balanced salt solution, 10 mM HEPES) and incubated for 60 min at 37°C. The loading buffer was removed and cells were washed with 100 μ l working buffer containing […], 0.1% BSA, and 2.5 mM Probenecid (pH 7.4) to remove the excess Fluo-4 AM. […] The assay plate was then transferred to the Molecular Devices-FLIPR384. The baseline calcium signal was recorded for 10 s, then the antagonist of interest was injected (10 μl at 3 times the final concentration) and the calcium signal recorded every second for 1 min, then every 2 s 40 times.

Experiment [2] addresses T2, human OX2R (Homo sapiens, UniProt O43614).
T2 construct: expressed in transfected cells; host or cells: CHO; cells from GNF, San Diego
T2 sequence (O43614 1-444): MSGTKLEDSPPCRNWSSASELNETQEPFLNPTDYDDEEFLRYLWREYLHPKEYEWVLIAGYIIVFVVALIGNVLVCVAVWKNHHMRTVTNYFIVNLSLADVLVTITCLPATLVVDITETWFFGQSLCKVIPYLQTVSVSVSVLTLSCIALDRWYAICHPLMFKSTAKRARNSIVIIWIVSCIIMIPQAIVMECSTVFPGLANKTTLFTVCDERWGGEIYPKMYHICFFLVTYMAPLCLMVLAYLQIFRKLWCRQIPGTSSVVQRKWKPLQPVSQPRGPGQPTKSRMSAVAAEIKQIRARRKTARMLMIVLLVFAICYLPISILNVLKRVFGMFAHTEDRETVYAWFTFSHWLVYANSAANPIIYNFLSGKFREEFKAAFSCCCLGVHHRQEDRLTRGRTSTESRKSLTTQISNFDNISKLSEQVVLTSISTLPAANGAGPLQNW
The experiment is described as follows: FLIPR orexin A-stimulated calcium accumulation, human OX2R. In kind it is cell-based. Conditions: CHO cells.
Text: as §1, §2

The next experiment concerns the target T3, rat OX2R (Rattus norvegicus, UniProt P56719).
T3 sequence (P56719 1-460): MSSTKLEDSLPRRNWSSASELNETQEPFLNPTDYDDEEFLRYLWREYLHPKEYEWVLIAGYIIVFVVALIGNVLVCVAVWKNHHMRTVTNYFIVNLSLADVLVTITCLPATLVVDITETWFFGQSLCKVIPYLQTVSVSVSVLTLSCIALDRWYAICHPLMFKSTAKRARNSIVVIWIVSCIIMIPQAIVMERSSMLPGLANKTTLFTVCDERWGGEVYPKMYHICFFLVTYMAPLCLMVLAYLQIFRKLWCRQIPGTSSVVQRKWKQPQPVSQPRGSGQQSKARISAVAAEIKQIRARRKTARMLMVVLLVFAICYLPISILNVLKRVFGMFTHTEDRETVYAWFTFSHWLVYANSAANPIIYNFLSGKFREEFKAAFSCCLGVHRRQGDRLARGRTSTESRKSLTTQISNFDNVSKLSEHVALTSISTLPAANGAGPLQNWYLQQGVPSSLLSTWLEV
The experiment can be described thus: FLIPR orexin A-stimulated calcium accumulation, rat OX2R. In kind it is cell-based. Conditions: HEK cells.
Text: as §1, §2

Experiment [3] concerns the target T1, human OX1R. The experiment is described as follows: [3H]-BBAC competition binding over time, CHO-hOX1 membranes.
Text: as §1
(§3) Cell membranes were resuspended in binding assay buffer at 4°C (10 mM HEPES, pH 7.5, 0.5% (w/v) bovine serum albumin (BSA), 5 mM MgCl2, 1 mM CaCl2, and 0.05% Tween 20) and homogenized with a Polytron homogenizer at 50 Hz for 20 s. […] Radioactivity was quantified using a TopCount™ microplate counter (Perkin Elmer).
(§4) All data was analyzed using GraphPad Prism 4.0 (GraphPad, San Diego, USA). The saturation data was fit to a non-linear regression model for saturation binding with consideration for one site binding. […] Competition binding data was fit to a non-linear regression model for competition binding with consideration for variable one site binding with a non-fixed Hill slope.

Experiment [4] has as its target T2, human OX2R. The experiment is described as follows: [3H]-BBAC competition binding over time, CHO-hOX2 membranes. The following applies: competition for 4.6 nM [3H]-BBAC, 15 min to 4 h, human OX2R.
Text: as §1, §3, §4

Setting [5] is: antagonist incubation 30 min, read-out: pKi (converted).
Where [6] appears, read: antagonist incubation 1 h, read-out: pKi (converted).
[7] abbreviates: antagonist incubation 2 h, read-out: pKi (converted).
Where [8] appears, read: antagonist incubation 4 h, read-out: pKi (converted).
The mark [9] stands for this setting: competition for 4.6 nM [3H]-BBAC, 15 min to 4 h, human OX1R.

Like-named read-outs stand apart in the source and are kept apart here.

In the case of `Cc1ccc(-c2ncccn2)c(C(=O)N2C[C@H](COc3ccc(F)cn3)CC[C@H]2C)c1` [Filorexant], the Ki was 2.24 nM at human OX1R [1] (antagonist incubation 30 min); 1.62 nM at human OX1R [1] (antagonist incubation 1 h); 1.66 nM at human OX1R [1] (antagonist incubation 2 h); 2.82 nM on human OX1R [1] (antagonist incubation 4 h); 0.355 nM on human OX2R [2] (antagonist incubation 30 min); 0.224 nM at human OX2R [2] (antagonist incubation 1 h). The Ki is 0.186 nM on human OX2R [2] (antagonist incubation 2 h); 0.17 nM on human OX2R [2] (antagonist incubation 4 h); 0.741 nM at rat OX2R (setting [5]); 0.417 nM on rat OX2R (setting [6]); 0.251 nM on rat OX2R (setting [7]); 0.178 nM at rat OX2R (setting [8]). Besides, the “effect of incubation time on competition curves” value (shortened to “effect of incubation time”) at human OX1R [3] (setting [9]) is “rather insensitive to incubation time”; at human OX2R [4], “shifted to the left over time, even up to 4 h”.

`Cc1nc(C(=O)N2CCCC[C@H]2CNC(=O)c2cccc3occc23)c(-c2ccc(F)cc2)s1` [SB-649868]: the Ki on human OX1R [1] (antagonist incubation 30 min) was 0.933 nM; at human OX1R [1] (antagonist incubation 1 h), 1.35 nM; on human OX1R [1] (antagonist incubation 2 h), 0.513 nM; on human OX1R [1] (antagonist incubation 4 h), 0.417 nM; at human OX2R [2] (antagonist incubation 30 min) it was 0.302 nM; on human OX2R [2] (antagonist incubation 1 h) it was 0.372 nM. Besides, the Ki at human OX2R [2] (antagonist incubation 2 h) was 0.17 nM; at human OX2R [2] (antagonist incubation 4 h), 0.151 nM; on rat OX2R (setting [5]), 0.457 nM; on rat OX2R (setting [6]), 0.316 nM; on rat OX2R (setting [7]) it was 0.155 nM; at rat OX2R (setting [8]), 0.141 nM. Also, the “effect of incubation time” value on human OX1R [3] (setting [9]) was “shifted to the left over time up to 4 h”; on human OX2R [4], “binding appeared to be rather stable”.

With `COc1ccnc(N2CCC3(CCCN(Cc4c[nH]c5ccccc45)C3=O)CC2)n1` [IPSU, 2-((1H-Indol-3-yl)methyl)-9-(4-methoxypyrimidin-2-yl)-2,9-diazaspiro[5.5]undecan-1-one], the Ki at human OX1R [1] (antagonist incubation 30 min) is 479 nM; on human OX1R [1] (antagonist incubation 4 h) it was 724 nM; on human OX2R [2] (antagonist incubation 30 min), 10 nM; on human OX2R [2] (antagonist incubation 1 h), 10.7 nM; on human OX2R [2] (antagonist incubation 2 h), 15.1 nM; at human OX2R [2] (antagonist incubation 4 h), 20.9 nM. Besides, the Ki on rat OX2R (setting [5]) is 23.4 nM; at rat OX2R (setting [6]), 28.2 nM; on rat OX2R (setting [7]), 24 nM; on rat OX2R (setting [8]), 28.2 nM. Besides, the pKi is 6.29 −log M on human OX1R [1] (antagonist incubation 1 h) and 6.28 −log M at human OX1R [1] (antagonist incubation 2 h). The “effect of incubation time” value at human OX1R [3] (setting [9]) and on human OX2R [4] was “do not show time-dependency” in each case.

For `CNC(=O)[C@@H](c1ccccc1)N1CCc2cc(OC)c(OC)cc2[C@@H]1CCc1ccc(C(F)(F)F)cc1` [Almorexant], on human OX2R [2] (antagonist incubation 30 min), the pKi is 8.33 −log M. In addition, the Ki was 1.51 nM on human OX2R [2] (antagonist incubation 1 h); 1.58 nM on human OX2R [2] (antagonist incubation 2 h); 0.813 nM on human OX2R [2] (antagonist incubation 4 h); 5.62 nM on rat OX2R (setting [5]); 2.24 nM on rat OX2R (setting [6]); 1.02 nM at rat OX2R (setting [7]). Besides, the Ki at rat OX2R (setting [8]) was 0.661 nM. The “effect of incubation time” value on human OX1R [3] is “shifted to the left with time moderately”; at human OX2R [4], “substantially”.

In the case of `Cc1ccc(-n2nccn2)c(C(=O)N2CCN(c3nc4cc(Cl)ccc4o3)CC[C@H]2C)c1` [Suvorexant], the Ki is 1.95 nM at rat OX2R (pKi, antagonist incubation 30 min); 0.871 nM at rat OX2R (pKi, antagonist incubation 1 h); 0.603 nM at rat OX2R (pKi, antagonist incubation 2 h); 0.427 nM on rat OX2R (pKi, antagonist incubation 4 h). In addition, the “effect of incubation time” value on human OX1R [3] and on human OX2R [4] was “shifted to the left over time” each time.

(Values after PMC3847553, “Kinetic properties of “dual” orexin receptor antagonists at OX1R and OX2R orexin receptors” (Frontiers in Neuroscience, 2013).)
